The target of series [1] is T1, Histone deacetylase 1 (Homo sapiens, UniProt Q13547). Conditions: Sf9.
Description: Inhibition of C-terminal His-tagged and C-terminal FLAG-tagged full length human recombinant HDAC1 expressed in baculovirus coexpressed in fall armyworm Sf9 cells using carboxyfluorescein (FAM)-labeled acetylated/ trifluoroacetylated peptide as substrate assessed as residence time by fluorescence assay
The target in series [2] is T2, Histone deacetylase 3 (Homo sapiens, UniProt O15379).
Description: Inhibition of full length human recombinant HDAC3 expressed in baculovirus using carboxyfluorescein (FAM)-labeled acetylated/ trifluoroacetylated peptide as substrate assessed as residence time by fluorescence assay
Series [3] is described as follows: Stability in mouse plasma assessed as compound remaining at 5 uM after 5 hrs by UPLC-MS analysis. It is filed as ADME, cell-free. Conditions: read-out: Stability.
Series [4] in a line: Stability in mouse liver microsomes assessed as compound remaining at 1 uM after 60 mins by UPLC-MS analysis. It is filed as ADME. Conditions: read-out: Stability. For orientation: Microsomes from liver hold many membrane-bound enzymes, among them those of drug oxidation.
The target of series [5] is T3, Histone deacetylase 2 (Homo sapiens, UniProt Q92769). Nature of the series: biochemical. Set-up: species or system Sf9.
Description: Inhibition full length human recombinant HDAC2 expressed in baculovirus coexpressed in fall armyworm Sf9 cells using carboxyfluorescein (FAM)-labeled acetylated/ trifluoroacetylated peptide as substrate after 60 mins by fluorescence assay
Series [6] concerns the target T2, Histone deacetylase 3. The source holds these as a separate data set.
Description: Inhibition full length human recombinant HDAC3 expressed in baculovirus using carboxyfluorescein (FAM)-labeled acetylated/ trifluoroacetylated peptide as substrate after 60 mins by fluorescence assay
The target in series [7] is T1, Histone deacetylase 1. Briefly: biochemical.
Description: Inhibition of C-terminal His-tagged and C-terminal FLAG-tagged full length human recombinant HDAC1 expressed in baculovirus coexpressed in fall armyworm Sf9 cells using carboxyfluorescein (FAM)-labeled acetylated/ trifluoroacetylated peptide as substrate after 60 mins by fluorescence assay
Series [8] addresses T3, Histone deacetylase 2. Conditions: Sf9.
Description: Inhibition of full length human recombinant HDAC2 expressed in baculovirus coexpressed in fall armyworm Sf9 cells using carboxyfluorescein (FAM)-labeled acetylated/ trifluoroacetylated peptide as substrate assessed as residence time by fluorescence assay
The subject of series [9] is Mus musculus. Nature of the series: Binding affinity to mouse brain HDAC1 at 10 mg/kg, ip. The series is classed as functional.
Series [10] concerns Mus musculus. Briefly: Binding affinity to mouse brain HDAC2 at 10 mg/kg, ip. It is filed as functional.
Series [11] concerns the target T4, Protein deacetylase HDAC6 (Homo sapiens, UniProt Q9UBN7).
T4 sequence (Q9UBN7 whole entry): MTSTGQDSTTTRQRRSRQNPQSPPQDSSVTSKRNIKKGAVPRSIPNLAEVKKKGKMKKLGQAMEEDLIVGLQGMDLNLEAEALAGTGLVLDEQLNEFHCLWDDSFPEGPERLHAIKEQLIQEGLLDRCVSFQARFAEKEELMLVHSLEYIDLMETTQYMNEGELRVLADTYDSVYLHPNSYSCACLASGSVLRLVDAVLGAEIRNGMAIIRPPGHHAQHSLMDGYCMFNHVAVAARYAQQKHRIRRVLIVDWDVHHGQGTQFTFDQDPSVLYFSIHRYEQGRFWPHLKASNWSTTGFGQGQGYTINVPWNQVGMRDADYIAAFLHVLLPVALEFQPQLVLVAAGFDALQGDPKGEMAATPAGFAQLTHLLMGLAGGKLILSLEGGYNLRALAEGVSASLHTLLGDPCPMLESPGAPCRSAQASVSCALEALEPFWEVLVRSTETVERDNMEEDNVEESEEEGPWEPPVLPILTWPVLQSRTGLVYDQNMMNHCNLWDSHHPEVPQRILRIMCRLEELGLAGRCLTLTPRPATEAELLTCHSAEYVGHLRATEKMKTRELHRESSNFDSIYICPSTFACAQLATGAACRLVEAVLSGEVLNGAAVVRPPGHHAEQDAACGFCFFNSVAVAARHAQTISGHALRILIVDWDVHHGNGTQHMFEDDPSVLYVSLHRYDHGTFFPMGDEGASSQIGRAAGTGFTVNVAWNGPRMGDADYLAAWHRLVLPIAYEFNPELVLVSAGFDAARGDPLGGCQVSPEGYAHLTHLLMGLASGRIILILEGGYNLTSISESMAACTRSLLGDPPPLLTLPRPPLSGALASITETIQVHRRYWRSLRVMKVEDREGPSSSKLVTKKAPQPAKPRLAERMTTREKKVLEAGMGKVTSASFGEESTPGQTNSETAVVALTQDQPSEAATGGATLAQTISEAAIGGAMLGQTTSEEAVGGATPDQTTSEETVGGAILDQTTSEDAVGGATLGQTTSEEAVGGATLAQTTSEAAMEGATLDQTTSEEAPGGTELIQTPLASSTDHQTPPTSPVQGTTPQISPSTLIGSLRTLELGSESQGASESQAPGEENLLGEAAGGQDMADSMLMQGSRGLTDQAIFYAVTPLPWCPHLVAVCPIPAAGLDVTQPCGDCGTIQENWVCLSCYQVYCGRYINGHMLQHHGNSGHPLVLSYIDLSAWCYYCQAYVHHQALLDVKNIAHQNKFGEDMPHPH
Nature of the series: Inhibition of human recombinant HDAC6 expressed in baculovirus coexpressed in fall armyworm Sf9 cells using carboxyfluorescein (FAM)-labeled acetylated/ trifluoroacetylated peptide as substrate after 60 mins by fluorescence assay.

Series [12] has as its target T5, Histone deacetylase 7 (Homo sapiens, UniProt Q8WUI4).
T5 sequence (Q8WUI4 whole entry): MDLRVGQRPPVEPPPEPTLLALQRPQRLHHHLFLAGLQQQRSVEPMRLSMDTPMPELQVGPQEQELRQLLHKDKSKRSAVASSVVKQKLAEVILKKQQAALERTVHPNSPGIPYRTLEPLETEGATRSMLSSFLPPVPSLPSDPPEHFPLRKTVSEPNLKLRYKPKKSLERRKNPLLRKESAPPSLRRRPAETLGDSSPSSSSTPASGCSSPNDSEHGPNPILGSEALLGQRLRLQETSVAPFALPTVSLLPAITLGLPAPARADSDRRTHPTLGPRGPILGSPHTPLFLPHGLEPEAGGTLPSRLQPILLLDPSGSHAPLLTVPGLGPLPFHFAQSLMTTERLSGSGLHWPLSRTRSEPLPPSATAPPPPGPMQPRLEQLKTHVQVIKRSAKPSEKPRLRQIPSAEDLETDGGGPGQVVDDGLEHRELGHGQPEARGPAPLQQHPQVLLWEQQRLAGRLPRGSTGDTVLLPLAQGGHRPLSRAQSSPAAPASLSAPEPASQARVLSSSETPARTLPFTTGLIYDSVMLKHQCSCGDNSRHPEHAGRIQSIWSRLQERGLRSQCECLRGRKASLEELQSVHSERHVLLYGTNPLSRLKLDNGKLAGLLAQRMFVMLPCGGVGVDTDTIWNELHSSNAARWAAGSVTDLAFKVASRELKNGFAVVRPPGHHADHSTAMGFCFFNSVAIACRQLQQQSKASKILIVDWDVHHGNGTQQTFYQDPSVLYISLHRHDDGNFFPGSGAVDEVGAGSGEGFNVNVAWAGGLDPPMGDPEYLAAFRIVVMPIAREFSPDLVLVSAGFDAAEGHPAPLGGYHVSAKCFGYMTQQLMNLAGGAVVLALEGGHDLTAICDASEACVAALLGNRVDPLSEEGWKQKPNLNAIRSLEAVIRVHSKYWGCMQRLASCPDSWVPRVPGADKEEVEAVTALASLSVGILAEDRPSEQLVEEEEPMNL
Briefly: Inhibition of N-terminal GST-tagged human recombinant HDAC7 (518 to end residues) expressed in baculovirus coexpressed in fall armyworm Sf9 cells using carboxyfluorescein (FAM)-labeled acetylated/ trifluoroacetylated peptide as substrate after 60 mins by fluorescence assay.

Series [13] addresses T6, Histone deacetylase 8 (Homo sapiens, UniProt Q9BY41).
T6 sequence (Q9BY41 whole entry): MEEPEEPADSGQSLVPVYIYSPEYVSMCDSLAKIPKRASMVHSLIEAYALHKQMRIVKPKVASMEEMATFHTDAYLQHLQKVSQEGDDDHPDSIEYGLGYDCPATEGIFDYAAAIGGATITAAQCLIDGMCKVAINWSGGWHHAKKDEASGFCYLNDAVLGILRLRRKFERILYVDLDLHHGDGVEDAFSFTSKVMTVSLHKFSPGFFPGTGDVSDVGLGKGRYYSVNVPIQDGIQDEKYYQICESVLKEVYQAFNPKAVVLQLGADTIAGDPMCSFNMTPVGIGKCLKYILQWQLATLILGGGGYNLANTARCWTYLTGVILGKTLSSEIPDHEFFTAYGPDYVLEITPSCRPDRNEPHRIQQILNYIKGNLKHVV
Briefly: Inhibition of C-terminal His-tagged full length human recombinant HDAC8 expressed in baculovirus coexpressed in fall armyworm Sf9 cells using carboxyfluorescein (FAM)-labeled acetylated/ trifluoroacetylated peptide as substrate after 60 mins by fluorescence assay.

Series [14] addresses Histone deacetylase 9 (Homo sapiens, UniProt Q9UKV0). Briefly: Inhibition of C-terminal His-tagged human recombinant HDAC9 (604 to 1066 residues) expressed in baculovirus coexpressed in fall armyworm Sf9 cells using carboxyfluorescein (FAM)-labeled acetylated/ trifluoroacetylated peptide as substrate after 60 mins by fluorescence assay.
A short description of series [15]: Half life in Sprague-Dawley rat plasma at 1 mg/kg, po. The series is classed as ADME, organism-based.
Series [16] in a line: Cmax in Sprague-Dawley rat plasma at 1 mg/kg, po. It is filed as ADME, organism-based. Set-up: dose 1 mg/kg, route oral.
The nature of series [17]: AUC in Sprague-Dawley rat brain at 1 mg/kg, po. It is filed as ADME, organism-based.
Series [18] can be described thus: Half life in Sprague-Dawley rat brain at 1 mg/kg, po. The series is classed as ADME, organism-based.
Series [19] is described as follows: Cmax in Sprague-Dawley rat brain at 1 mg/kg, po. It is filed as ADME, organism-based. Set-up: dose 1 mg/kg, route oral.
Series [20] in a line: Ratio of Cmax in brain to plasma in Sprague-Dawley rat at 1 mg/kg, po. It is filed as ADME, organism-based.
Series [21] can be described thus: Ratio of AUC in brain to plasma in Sprague-Dawley rat at 1 mg/kg, po. The series is classed as ADME, organism-based. Conditions: read-out: Ratio AUC.
Series [22] is described as follows: Oral bioavailability in Sprague-Dawley rat at 1 mg/kg. The series is classed as ADME, organism-based. Conditions: in vivo.
A short description of series [23]: AUC in Sprague-Dawley rat plasma at 1 mg/kg, po. It is filed as ADME, organism-based.
The target in series [24] is Histone deacetylase 4 (Homo sapiens, UniProt P56524). Nature of the series: Inhibition of N-terminal GST-tagged and C-terminal His-tagged human recombinant HDAC4 (627 to 1084 residues ) expressed in baculovirus coexpressed in fall armyworm Sf9 cells using carboxyfluorescein (FAM)-labeled acetylated/ trifluoroacetylated peptide as substrate after 60 mins by fluorescence assay.

Series [25] concerns the target Histone deacetylase 5 (Homo sapiens, UniProt Q9UQL6). Nature of the series: Inhibition of N-terminal GST-tagged full length human recombinant HDAC5 expressed in baculovirus coexpressed in fall armyworm Sf9 cells using carboxyfluorescein (FAM)-labeled acetylated/ trifluoroacetylated peptide as substrate after 60 mins by fluorescence assay.

A word on the IC50: it is the concentration at which inhibition is half-maximal. For orientation: half-life means the time in which the quantity being followed falls by half. A lower half-life goes with rapid decline. As a reminder, the Cmax is the highest concentration seen after dosing. As a reminder, the AUC is the area under the concentration-time curve, a measure of exposure. The term bioavailability denotes dose-corrected exposure relative to a reference, in per cent. Read a low bioavailability as little systemic uptake.

T1 sequence (Q13547 whole entry): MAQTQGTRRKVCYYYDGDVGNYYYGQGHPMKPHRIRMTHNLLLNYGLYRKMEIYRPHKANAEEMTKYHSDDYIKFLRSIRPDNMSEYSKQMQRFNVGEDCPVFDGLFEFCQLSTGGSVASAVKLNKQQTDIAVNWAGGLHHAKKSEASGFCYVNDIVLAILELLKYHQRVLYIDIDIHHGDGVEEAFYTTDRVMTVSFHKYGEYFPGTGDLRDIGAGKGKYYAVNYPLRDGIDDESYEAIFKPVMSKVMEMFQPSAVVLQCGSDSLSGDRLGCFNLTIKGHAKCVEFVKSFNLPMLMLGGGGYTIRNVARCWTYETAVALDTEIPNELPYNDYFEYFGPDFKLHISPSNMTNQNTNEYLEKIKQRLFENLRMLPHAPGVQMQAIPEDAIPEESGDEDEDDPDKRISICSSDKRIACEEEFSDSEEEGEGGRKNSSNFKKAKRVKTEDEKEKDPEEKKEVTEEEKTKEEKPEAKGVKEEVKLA
T3 sequence (Q92769 whole entry): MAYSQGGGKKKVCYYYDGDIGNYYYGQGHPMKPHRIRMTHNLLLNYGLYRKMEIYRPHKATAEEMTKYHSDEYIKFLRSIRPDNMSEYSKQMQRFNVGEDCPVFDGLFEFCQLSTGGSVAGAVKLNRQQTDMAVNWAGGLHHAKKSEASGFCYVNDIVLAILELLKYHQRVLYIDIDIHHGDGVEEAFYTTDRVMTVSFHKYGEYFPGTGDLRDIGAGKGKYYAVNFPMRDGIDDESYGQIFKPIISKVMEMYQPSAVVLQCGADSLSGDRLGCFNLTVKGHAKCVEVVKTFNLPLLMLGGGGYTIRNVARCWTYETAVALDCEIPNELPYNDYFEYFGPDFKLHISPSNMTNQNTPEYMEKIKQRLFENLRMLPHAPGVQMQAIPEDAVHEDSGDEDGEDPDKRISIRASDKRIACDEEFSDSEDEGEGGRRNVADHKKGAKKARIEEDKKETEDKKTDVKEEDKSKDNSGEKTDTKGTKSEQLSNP
T2 sequence (O15379 whole entry): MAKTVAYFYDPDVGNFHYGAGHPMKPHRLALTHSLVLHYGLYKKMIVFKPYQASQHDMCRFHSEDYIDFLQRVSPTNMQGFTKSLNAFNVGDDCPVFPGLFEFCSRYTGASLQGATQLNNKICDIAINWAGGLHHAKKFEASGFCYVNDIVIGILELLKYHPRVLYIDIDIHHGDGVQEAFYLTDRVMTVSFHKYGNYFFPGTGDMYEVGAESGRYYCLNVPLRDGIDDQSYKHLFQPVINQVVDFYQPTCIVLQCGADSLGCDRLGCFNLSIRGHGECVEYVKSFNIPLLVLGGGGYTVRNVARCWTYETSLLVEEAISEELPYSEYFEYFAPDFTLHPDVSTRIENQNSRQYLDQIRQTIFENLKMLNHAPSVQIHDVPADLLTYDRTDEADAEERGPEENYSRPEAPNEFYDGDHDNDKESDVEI
Histone deacetylase 5, sequence (Q9UQL6 whole entry): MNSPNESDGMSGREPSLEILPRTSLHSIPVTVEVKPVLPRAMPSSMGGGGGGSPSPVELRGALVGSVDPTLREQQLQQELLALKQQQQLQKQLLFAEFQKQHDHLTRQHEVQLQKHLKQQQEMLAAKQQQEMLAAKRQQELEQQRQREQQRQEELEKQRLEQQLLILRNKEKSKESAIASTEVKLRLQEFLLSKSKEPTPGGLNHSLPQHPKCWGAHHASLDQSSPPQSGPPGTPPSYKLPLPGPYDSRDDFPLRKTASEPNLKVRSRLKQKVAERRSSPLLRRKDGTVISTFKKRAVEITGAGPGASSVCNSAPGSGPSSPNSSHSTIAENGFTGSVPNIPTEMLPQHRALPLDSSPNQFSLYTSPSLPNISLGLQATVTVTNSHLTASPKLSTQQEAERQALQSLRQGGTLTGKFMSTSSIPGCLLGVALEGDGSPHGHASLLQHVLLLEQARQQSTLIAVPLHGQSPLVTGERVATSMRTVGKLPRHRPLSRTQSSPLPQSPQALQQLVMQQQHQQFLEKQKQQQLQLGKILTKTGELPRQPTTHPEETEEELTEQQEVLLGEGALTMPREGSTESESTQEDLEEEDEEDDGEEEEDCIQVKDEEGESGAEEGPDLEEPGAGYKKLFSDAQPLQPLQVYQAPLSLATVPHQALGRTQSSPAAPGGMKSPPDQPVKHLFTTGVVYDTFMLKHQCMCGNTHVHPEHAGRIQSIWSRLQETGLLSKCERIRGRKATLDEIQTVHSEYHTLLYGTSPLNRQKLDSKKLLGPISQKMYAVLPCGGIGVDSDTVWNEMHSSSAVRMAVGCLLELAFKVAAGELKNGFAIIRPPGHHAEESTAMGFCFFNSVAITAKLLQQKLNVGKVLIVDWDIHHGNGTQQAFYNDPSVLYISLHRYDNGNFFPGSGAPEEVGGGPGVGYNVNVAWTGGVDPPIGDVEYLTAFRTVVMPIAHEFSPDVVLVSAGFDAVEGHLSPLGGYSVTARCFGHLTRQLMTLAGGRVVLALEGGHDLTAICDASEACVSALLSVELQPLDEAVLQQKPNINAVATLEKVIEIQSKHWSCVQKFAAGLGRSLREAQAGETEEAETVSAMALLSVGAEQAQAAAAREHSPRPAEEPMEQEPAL
Histone deacetylase 9, sequence (Q9UKV0 whole entry, the tested form may be a part): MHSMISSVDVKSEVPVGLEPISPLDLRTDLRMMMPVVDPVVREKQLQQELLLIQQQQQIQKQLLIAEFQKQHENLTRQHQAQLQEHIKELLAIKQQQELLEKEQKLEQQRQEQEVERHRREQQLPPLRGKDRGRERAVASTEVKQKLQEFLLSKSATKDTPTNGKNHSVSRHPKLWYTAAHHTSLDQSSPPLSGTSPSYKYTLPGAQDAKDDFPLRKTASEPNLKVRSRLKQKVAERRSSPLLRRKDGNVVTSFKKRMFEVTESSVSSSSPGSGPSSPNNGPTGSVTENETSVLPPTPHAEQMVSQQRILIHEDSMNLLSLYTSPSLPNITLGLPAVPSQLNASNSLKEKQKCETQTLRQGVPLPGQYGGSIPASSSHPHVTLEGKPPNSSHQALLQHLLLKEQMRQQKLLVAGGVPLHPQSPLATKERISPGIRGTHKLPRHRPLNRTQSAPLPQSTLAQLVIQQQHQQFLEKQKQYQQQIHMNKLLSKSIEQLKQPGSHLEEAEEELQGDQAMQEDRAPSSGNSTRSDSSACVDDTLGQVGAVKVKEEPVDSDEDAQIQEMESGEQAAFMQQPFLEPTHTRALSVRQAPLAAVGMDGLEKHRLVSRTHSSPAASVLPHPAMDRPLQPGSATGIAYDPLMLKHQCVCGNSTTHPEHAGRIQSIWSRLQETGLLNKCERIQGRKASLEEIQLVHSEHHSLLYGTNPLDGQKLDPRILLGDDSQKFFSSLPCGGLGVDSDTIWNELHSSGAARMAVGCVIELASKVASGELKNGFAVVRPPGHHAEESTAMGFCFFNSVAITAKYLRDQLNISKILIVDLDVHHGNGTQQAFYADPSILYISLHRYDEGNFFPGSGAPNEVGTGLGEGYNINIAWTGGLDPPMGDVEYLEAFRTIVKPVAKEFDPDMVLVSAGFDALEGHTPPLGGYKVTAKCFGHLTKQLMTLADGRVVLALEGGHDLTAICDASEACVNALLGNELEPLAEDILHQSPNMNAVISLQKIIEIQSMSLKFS
Histone deacetylase 4, sequence (P56524 whole entry, the tested form may be a part): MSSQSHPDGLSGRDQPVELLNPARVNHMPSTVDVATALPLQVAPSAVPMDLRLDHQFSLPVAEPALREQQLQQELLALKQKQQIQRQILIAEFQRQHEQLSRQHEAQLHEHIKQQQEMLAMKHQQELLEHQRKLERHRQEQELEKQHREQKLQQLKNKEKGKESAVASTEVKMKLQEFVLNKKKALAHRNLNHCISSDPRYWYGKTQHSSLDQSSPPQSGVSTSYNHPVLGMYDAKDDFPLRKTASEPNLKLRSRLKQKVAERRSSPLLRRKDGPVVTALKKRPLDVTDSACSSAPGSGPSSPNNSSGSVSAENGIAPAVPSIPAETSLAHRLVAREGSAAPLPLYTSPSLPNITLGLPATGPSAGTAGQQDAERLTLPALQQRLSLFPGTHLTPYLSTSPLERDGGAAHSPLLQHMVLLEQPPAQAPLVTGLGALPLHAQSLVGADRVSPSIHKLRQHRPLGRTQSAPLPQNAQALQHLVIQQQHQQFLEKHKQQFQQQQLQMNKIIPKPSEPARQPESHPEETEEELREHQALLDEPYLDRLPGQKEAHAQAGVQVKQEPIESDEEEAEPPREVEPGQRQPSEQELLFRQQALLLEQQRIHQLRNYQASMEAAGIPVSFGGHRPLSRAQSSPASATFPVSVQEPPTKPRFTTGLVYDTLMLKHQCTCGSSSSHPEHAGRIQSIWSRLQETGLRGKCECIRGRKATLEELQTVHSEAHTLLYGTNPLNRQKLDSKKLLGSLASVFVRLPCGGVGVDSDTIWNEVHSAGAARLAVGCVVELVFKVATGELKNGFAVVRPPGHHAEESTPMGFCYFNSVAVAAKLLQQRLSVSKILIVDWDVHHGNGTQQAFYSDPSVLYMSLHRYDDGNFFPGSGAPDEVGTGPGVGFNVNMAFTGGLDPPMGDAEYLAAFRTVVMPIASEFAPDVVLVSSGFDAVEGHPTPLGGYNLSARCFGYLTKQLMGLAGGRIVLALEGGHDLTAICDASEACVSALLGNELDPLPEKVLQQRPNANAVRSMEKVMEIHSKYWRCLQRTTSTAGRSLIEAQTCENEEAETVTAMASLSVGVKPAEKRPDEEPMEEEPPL

As for `Nc1ccc(-c2ccncc2)cc1NC(=O)C1CCOCC1`, the T1/2 in [1] was 2.35 min; in [2], greater than 33.3 min.
As to `Nc1ccc(-c2ccc(F)cc2)cc1NC(=O)C1COc2ccccc2C1` (centres undefined), the remaining at 5 h, 5 µM in series [3] was 100%. In series [4], the remaining at 1 h, 1 µM came to 25%.
Consider `Nc1ccc(-c2cccnc2)cc1NC(=O)C1CCOCC1`, for which the results for the T1/2 in series [1] and in [2] were 6.45 min and 20.8 min, respectively.
In the case of `Nc1ccc(-c2ccc(F)cc2)cc1NC(=O)[C@@H]1CCCCO1`, the remaining at 5 h, 5 µM in series [3] stood at 0%. Moreover, the IC50 was 1.45 µM in series [5], 5.95 µM in [6] and 1.43 µM in series [7].
Turning to `Nc1ccc(-c2ccccc2)cc1NC(=O)C1CCOCC1`, the results for the T1/2 in series [1] and in series [2] were 0.119 min and 3.85 min, respectively.
For the compound `Nc1ccc(-c2ccc(F)cc2)cc1NC(=O)C1Cc2ccccc2CO1` (centres undefined), the remaining at 5 h, 5 µM in series [3] was 11.1%. In addition, the IC50 in series [5] was 0.119 µM; in series [6] it was 25.9 µM; in [7], 0.045 µM.
On to `Nc1ccc(-c2ccc(F)cc2)cc1NC(=O)C1C2COCC21` (centres undefined), for which, in [3], the remaining at 5 h, 5 µM was determined as 94.1%. The remaining at 1 h, 1 µM in [4] is 60%. For the same compound, the values for the T1/2 in [1], in series [8] and in series [2] were 13 min, 58 min and 217 min, respectively.
For `Nc1ccc(-c2ccc(F)cc2)cc1NC(=O)C1CCOCC1`, the remaining at 5 h, 5 µM in series [3] is 93%. Besides, in series [4], the remaining at 1 h, 1 µM is 54%. Also, the Activity in series [9] is 68%; in series [10], 10%.
With `Nc1ccc(-c2ccc(F)cc2)cc1NC(=O)C1CCc2ccccc2O1` (centres undefined), the remaining at 5 h, 5 µM in series [3] was 3.7%. Further, the figures for the IC50 in series [5], in series [6] and in [7] were 6.56 µM, 6.26 µM and 5.59 µM, respectively.
For `Nc1ccc(-c2ccc(F)cc2)cc1NC(=O)[C@H]1CCCCO1`, in that order: 0%, 1.29 µM, 5.73 µM and 0.467 µM.
In the case of `Nc1ccc(-c2ccc(F)cc2)cc1NC(=O)C1CCCOC1` (centres undefined), the concentration for half-maximal inhibition (IC50) in [5] turned out to be 4.73 µM; in [6] it was 19.8 µM; in series [7], 1.22 µM.
In the case of `Nc1ccc(-c2cccc(F)c2)cc1NC(=O)C1CCOCC1`, the results for the T1/2 in series [1], in [8] and in series [2] were 9.67 min, 12.3 min and greater than 33.3 min, respectively.
Regarding `Nc1ccc(-c2ccc(F)cc2)cc1NC(=O)[C@@H]1C[C@H]2CC[C@@H](C1)O2`, the half-inhibitory concentration (IC50) in series [11], in series [12], in series [13], in [14], in series [24] and in series [25] was greater than 33.3 µM throughout. For the same compound, the remaining at 5 h, 5 µM in series [3] is 114%. Also, the remaining at 1 h, 1 µM in [4] is 62%. The Activity amounted to 42% in series [9] and 10% in [10]. Besides, the figures for the half-life in [15] and in [18] were 282 min and 146 min, respectively. In addition, the figures for the Cmax in series [16] and in [19] were 3970 nM and 890 nM, respectively. Besides, the AUC is 1.8 µM·h in [17] and 10.8 µM·h in series [23]. The Kp was 0.22 in series [20] and 0.17 in [21]. For the same compound, the bioavailability in series [22] was 33.4%. Besides, the T1/2 in series [1] stood at 3 min; in series [8], 37 min; in series [2], 132 min.
Take `Nc1ccc(-c2ccc(C(F)(F)F)cc2)cc1NC(=O)C1CCOCC1`: the T1/2 in series [1] is 26.7 min; in series [8], greater than 33.3 min; in [2] it was greater than 33.3 min.

Source of the values: ChEMBL document CHEMBL3826926, “Kinetic and structural insights into the binding of histone deacetylase 1 and 2 (HDAC1, 2) inhibitors” (Bioorg Med Chem, 2016).
